Laboratory results published in PubChem BioAssay AID256 (DTP/NCI, 2004).
Inconclusive results and toxic doses are left out.

Test system: CD2F1 mice, L1210 leukemia ip, survival T/C
Assay: NCI In Vivo Anticancer Drug Screen. Data for tumor model L1210 Leukemia (intraperitoneal) in CD2F1 (CDF1) mice
Details: higher = longer survival
Method in brief: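 Each value reflects a quotient of treated over vehicle control outcomes in mice with a transplanted tumor.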

[1] = endpoint: mean survival time, dose: 100.0 mg/kg/injection, schedule: Q04DX003 (ip), vehicle: saline with Tween-80
[2] = endpoint: mean survival time, dose: 200.0 mg/kg/injection, schedule: Q04DX003 (ip), vehicle: saline with Tween-80
[3] = endpoint: mean survival time, dose: 400.0 mg/kg/injection, schedule: Q04DX003 (ip), vehicle: saline with Tween-80

O=C(c1ccccc1)C(CC[P+](c1ccccc1)(c1ccccc1)c1ccccc1)(OBr)c1ccccc1 (configuration not stated)
T/C (endpoint: mean survival time, dose: 6.25 mg/kg/injection, schedule: Q01DX001 (ip), vehicle: saline with Tween-80): 112 % of control
T/C (endpoint: mean survival time, dose: 12.5 mg/kg/injection, schedule: Q01DX001 (ip), vehicle: saline with Tween-80): 97 % of control
T/C (endpoint: mean survival time, dose: 25.0 mg/kg/injection, schedule: Q01DX001 (ip), vehicle: saline with Tween-80): 101 % of control

O=C1CCCC2c3ccccc3NC12 (configuration not stated)
T/C (endpoint: mean survival time, dose: 100.0 mg/kg/injection, schedule: Q01DX001 (ip), vehicle: saline): 98 % of control
T/C (endpoint: mean survival time, dose: 200.0 mg/kg/injection, schedule: Q01DX001 (ip), vehicle: saline): 102 % of control
T/C (endpoint: mean survival time, dose: 400.0 mg/kg/injection, schedule: Q01DX001 (ip), vehicle: saline): 101 % of control

CC(=O)C(C[CH2][Hg][Cl])C(C)=O
T/C (endpoint: mean survival time, dose: 75.0 mg/kg/injection, schedule: Q01DX001 (ip), vehicle: other): 92 % of control

Nc1n[nH]c(=O)[nH]1
T/C (endpoint: mean survival time, dose: 31.3 mg/kg/injection, schedule: Q03HX024 (ip), vehicle: saline): 106 % of control
T/C (endpoint: mean survival time, dose: 62.5 mg/kg/injection, schedule: Q03HX024 (ip), vehicle: saline): 106 % of control
T/C (endpoint: mean survival time, dose: 125.0 mg/kg/injection, schedule: Q03HX024 (ip), vehicle: saline): 109 % of control
T/C (endpoint: mean survival time, dose: 250.0 mg/kg/injection, schedule: Q03HX024 (ip), vehicle: saline): 161 % of control

COCC/C(COC)=N\N=C(/CCOC)COC
T/C (endpoint: mean survival time, dose: 100.0 mg/kg/injection, schedule: Q01DX009 (ip), vehicle: saline): 102 % of control
T/C (endpoint: mean survival time, dose: 100.0 mg/kg/injection, schedule: Q04DX003 (ip), vehicle: Klucel (hydroxypropylcellulose) (HPC)): 102 % of control
T/C [1]: 101 % of control
T/C (endpoint: mean survival time, dose: 200.0 mg/kg/injection, schedule: Q01DX009 (ip), vehicle: saline): 108 % of control
T/C (endpoint: mean survival time, dose: 200.0 mg/kg/injection, schedule: Q04DX003 (ip), vehicle: Klucel (hydroxypropylcellulose) (HPC)): 102 % of control
T/C [2]: 101 % of control
T/C (endpoint: mean survival time, dose: 400.0 mg/kg/injection, schedule: Q04DX003 (ip), vehicle: Klucel (hydroxypropylcellulose) (HPC)): 114 % of control
T/C [3]: 106 % of control

O=C(OC12CCCC1CC2)c1ccc([N+](=O)[O-])cc1 (configuration not stated)
T/C (endpoint: mean survival time, dose: 100.0 mg/kg/injection, schedule: Q01DX009 (ip), vehicle: saline with Tween-80): 97 % of control
T/C (endpoint: mean survival time, dose: 200.0 mg/kg/injection, schedule: Q01DX009 (ip), vehicle: saline with Tween-80): 95 % of control

Nc1ccccc1SC1CC(=O)N(c2ccccc2Cl)C1=O (configuration not stated)
T/C [1]: 93 % of control
T/C [2]: 89 % of control
T/C [3]: 89 % of control

O=c1cc2cccccc-2cc1O
T/C (endpoint: mean survival time, dose: 5.0 mg/kg/injection, schedule: Q01DX001 (ip), vehicle: saline): 103 % of control
T/C (endpoint: mean survival time, dose: 10.0 mg/kg/injection, schedule: Q01DX001 (ip), vehicle: saline): 97 % of control
T/C (endpoint: mean survival time, dose: 20.0 mg/kg/injection, schedule: Q01DX001 (ip), vehicle: saline): 101 % of control
T/C (endpoint: mean survival time, dose: 20.0 mg/kg/injection, schedule: Q04DX003 (ip), vehicle: saline with Tween-80): 97 % of control
T/C (endpoint: mean survival time, dose: 40.0 mg/kg/injection, schedule: Q01DX001 (ip), vehicle: saline): 103 % of control
T/C (endpoint: mean survival time, dose: 40.0 mg/kg/injection, schedule: Q04DX003 (ip), vehicle: saline with Tween-80): 97 % of control
T/C (endpoint: mean survival time, dose: 80.0 mg/kg/injection, schedule: Q01DX001 (ip), vehicle: saline): 97 % of control

OC(C=C(C(F)(F)F)C(F)(F)F)c1ccccc1Cl (configuration not stated)
T/C (endpoint: mean survival time, dose: 50.0 mg/kg/injection, schedule: Q04DX003 (ip), vehicle: saline with Tween-80): 102 % of control
T/C [1]: 107 % of control
T/C [2]: 111 % of control

CC1=C/C(O)CC(=O)Cc2nc(co2)C(=O)N2CCC=C2C(=O)OC(C(C)C)C(C)/C=C\C(=O)NC/C=C\1 (configuration not stated)
T/C (endpoint: mean survival time, dose: 1.0 micrograms/kg/injection, schedule: Q01DX009 (ip), vehicle: Klucel (hydroxypropylcellulose) (HPC)): 98 % of control
T/C (endpoint: mean survival time, dose: 2.0 micrograms/kg/injection, schedule: Q01DX009 (ip), vehicle: Klucel (hydroxypropylcellulose) (HPC)): 101 % of control
T/C (endpoint: mean survival time, dose: 4.0 micrograms/kg/injection, schedule: Q01DX009 (ip), vehicle: Klucel (hydroxypropylcellulose) (HPC)): 97 % of control
T/C (endpoint: mean survival time, dose: 8.0 micrograms/kg/injection, schedule: Q01DX009 (ip), vehicle: Klucel (hydroxypropylcellulose) (HPC)): 92 % of control
T/C (endpoint: median survival time, dose: 25.0 mg/kg/injection, schedule: Q01DX009 (ip), vehicle: Klucel (hydroxypropylcellulose) (HPC)): 98 % of control
T/C (endpoint: median survival time, dose: 50.0 mg/kg/injection, schedule: Q01DX009 (ip), vehicle: Klucel (hydroxypropylcellulose) (HPC)): 106 % of control
T/C (endpoint: median survival time, dose: 100.0 mg/kg/injection, schedule: Q01DX009 (ip), vehicle: Klucel (hydroxypropylcellulose) (HPC)): 105 % of control
T/C (endpoint: median survival time, dose: 200.0 mg/kg/injection, schedule: Q01DX009 (ip), vehicle: Klucel (hydroxypropylcellulose) (HPC)): 104 % of control
